In patent publication US8987301B2, “Heteroarylaminoquinolines as TGF-beta receptor kinase inhibitors” (Merck Patent GmbH, priority 2009, dated 2015):

Molecular target: T1, TβR (GST-ALK5) (Homo sapiens, UniProt P36897)
T1 sequence (P36897 34-503): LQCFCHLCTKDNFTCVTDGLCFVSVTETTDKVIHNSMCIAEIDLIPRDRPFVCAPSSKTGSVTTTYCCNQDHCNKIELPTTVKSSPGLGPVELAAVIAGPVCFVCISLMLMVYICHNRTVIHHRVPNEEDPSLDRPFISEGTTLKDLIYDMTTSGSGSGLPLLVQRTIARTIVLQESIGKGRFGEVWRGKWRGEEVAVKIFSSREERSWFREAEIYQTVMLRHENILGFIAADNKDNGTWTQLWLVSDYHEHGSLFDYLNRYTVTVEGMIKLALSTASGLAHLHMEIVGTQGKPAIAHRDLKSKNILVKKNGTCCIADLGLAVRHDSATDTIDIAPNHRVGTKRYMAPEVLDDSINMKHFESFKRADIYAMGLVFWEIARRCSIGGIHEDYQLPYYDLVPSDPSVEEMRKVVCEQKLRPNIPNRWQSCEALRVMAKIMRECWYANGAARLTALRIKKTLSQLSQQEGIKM
Assay: In-vitro (enzyme) flashplate kinase assay, TβR activity
Assay type: biochemical
Conditions: GST-ALK5, GST-SMAD2 substrate, 3 mM ATP
Description: In-Vitro (Enzyme) Assay for Determination of the Efficacy of Inhibitors of the Inhibition of TGF-Beta-Mediated Effects
The kinase assay was carried out as 384-well flashplate assay. […] The reaction was stopped using 25 μl of 200 mM EDTA solution, filtered with suction at room temperature after 30 min, and the wells were washed with 3 times 100 μl of 0.9% NaCl solution. Radioactivity was measured in the TopCount. The IC50 values were calculated using RS1. Above and below, all temperatures were indicated in ° C.

Row | SMILES | IC50 [nM]
1 | Fc1ccc(Cl)cc1-c1cc(Oc2ccncc2)c2ccccc2n1 [compound 006] | > 10000
2 | CN(c1ccncc1)c1cc(-c2cc(Cl)ccc2F)nc2ccccc12 [compound 007] | 500 to 1000
3 | O=C(Nc1cc(-c2cc(Cl)ccc2F)nc2ccccc12)c1ccncc1 [compound 009] | 1000 to 10000
4 | Fc1ccc(Cl)cc1-c1cc(Nc2ccnc3ccccc23)c2ccccc2n1 [compound 013] | < 500
5 | Fc1ccc(Cl)cc1-c1cc(-n2ccc3cnccc32)c2ccccc2n1 [compound 014] | < 500
6 | CN1CCN(c2nccc(Nc3cc(-c4cc(Cl)ccc4F)nc4ccccc34)n2)CC1 [compound 015] | > 10000
7 | Fc1ccc(Cl)cc1-c1cc(Nc2cn[nH]c2)c2ccccc2n1 [compound 016] | < 500
8 | Fc1ccc(Cl)cc1-c1cc(N(c2ccncn2)c2cc(-c3cc(Cl)ccc3F)nc3ccccc23)c2ccccc2n1 [compound 017] | 1000 to 10000
9 | Nc1cnccc1Nc1cc(-c2cc(Cl)ccc2F)nc2ccccc12 [compound 019] | < 500
10 | O=c1[nH]c2cnccc2n1-c1cc(-c2cc(Cl)ccc2F)nc2ccccc12 [compound 023, N*4*-[2-(5-Chloro-2-fluoro-phenyl)-quinolin-4-yl]-pyridine-3,4-diamine urea] | < 500
11 | Nc1ccncc1Nc1cc(-c2cc(Cl)ccc2F)nc2ccccc12 [compound 029] | > 10000
12 | O=S(=O)(CC(F)(F)F)Nc1cnccc1Nc1cc(-c2cc(Cl)ccc2F)nc2ccccc12 [compound 030] | 1000 to 10000
13 | Nc1ccnc(Nc2cc(-c3cc(Cl)ccc3F)nc3ccccc23)c1 [compound 035] | > 10000
14 | Fc1ccc(Cl)cc1-c1cc(Nc2cc(Nc3cc(-c4cc(Cl)ccc4F)nc4ccccc34)ncn2)c2ccccc2n1 [compound 036] | > 10000
15 | CCOC(=O)n1c(=O)n(-c2cc(-c3cc(Cl)ccc3F)nc3ccccc23)c2ccncc21 [compound 039] | < 500
16 | O=S(=O)(O)Nc1cnccc1Nc1cc(-c2cc(Cl)ccc2F)nc2ccccc12 [compound 041] | 1000 to 10000
17 | Fc1ccccc1-c1cc(Nc2ccncc2)c2ccccc2n1 [compound 044] | < 500

Row | SMILES | IC50 [nM]
18 | Fc1ccccc1-c1cc(Nc2ccncn2)c2ccccc2n1 [compound 045] | < 500
19 | Fc1ccccc1-c1cc(Nc2ccncc2C(F)(F)F)c2ccccc2n1 [compound 046] | < 500
20 | c1ccc2c(Nc3ccncc3)cc(C3CCCCC3)nc2c1 [compound 047] | 1000 to 10000
21 | Clc1ccc(Cl)c(-c2cc(Nc3ccncc3)c3ccccc3n2)c1 [compound 048] | < 500
22 | FC(F)(F)c1cccc(-c2cc(Nc3ccncc3)c3ccccc3n2)c1 [compound 051] | < 500
23 | CN(C)CC(=O)Nc1cnccc1Nc1cc(-c2cc(Cl)ccc2F)nc2ccccc12 [compound 054] | < 500
24 | FC(F)(F)c1ccc(Cl)cc1-c1cc(Nc2ccncc2)c2ccccc2n1 [compound 058] | > 10000
25 | CN1CCN(C(=O)Nc2cnccc2N(C(=O)N2CCN(C)CC2)c2cc(-c3cc(Cl)ccc3F)nc3ccccc23)CC1 [compound 061] | > 10000
26 | CN1CCN(C(=O)Nc2cnccc2Nc2cc(-c3cc(Cl)ccc3F)nc3ccccc23)CC1 [compound 062] | 500 to 1000
27 | Fc1ccc(Cl)cc1-c1cc(Oc2cccnc2)c2ccccc2n1 [compound 063] | > 10000
28 | CN(C)CCC(=O)Nc1cnccc1Nc1cc(-c2cc(Cl)ccc2F)nc2ccccc12 [compound 064] | < 500
29 | Fc1ccc(Cl)cc1-c1cc(Nc2ncnc3ccccc23)c2ccccc2n1 [compound 068] | < 500
30 | Fc1ccc(Cl)c(-c2cc(Nc3ccncc3)c3ccccc3n2)c1 [compound 070] | 1000 to 10000
31 | O=C(O)CCNc1cnccc1Nc1cc(-c2cc(Cl)ccc2F)nc2ccccc12 [compound 071] | > 10000
32 | Nc1cnccc1N(CCC(=O)O)c1cc(-c2cc(Cl)ccc2F)nc2ccccc12 [compound 072] | > 10000
33 | Nc1cnccc1Nc1cc(-c2ccccc2F)nc2ccccc12 [compound 074, N*4*-[2-(2-fluoro-phenyl)-quinolin-4-yl]-pyridine-3,4-diamine] | 1000 to 10000
34 | COc1ccc2c(Nc3cc(-c4cc(Cl)ccc4F)nc4ccccc34)ccnc2c1 [compound 075] | < 500

Continued, values first:

Row | IC50 [nM] | SMILES
35 | < 500 | Fc1ccc(Cl)cc1-c1cc(Nc2ccncn2)c2ccccc2n1 [compound 003]
36 | > 10000 | Fc1ccc(Cl)cc1-c1cc(Cc2ccncc2)c2ccccc2n1 [compound 004]
37 | > 10000 | Fc1ccc(Cl)cc1-c1cc(Nc2ccccn2)c2ccccc2n1 [compound 005]
38 | < 500 | Fc1ccc(Cl)cc1-c1cc(Nc2ccncc2C(F)(F)F)c2ccccc2n1 [compound 008]
39 | 1000 to 10000 | O=C(Nc1cc(-c2cc(Cl)ccc2F)nc2ccccc12)c1cccnc1 [compound 010]
40 | 1000 to 10000 | Fc1ccc(Cl)cc1-c1cc(Sc2ccncc2)c2ccccc2n1 [compound 011]
41 | > 10000 | Fc1ccc(Cl)cc1-c1cc(Nc2cccnc2)c2ccccc2n1 [compound 012]
42 | 1000 to 10000 | O=[N+]([O-])c1cnccc1Nc1cc(-c2cc(Cl)ccc2F)nc2ccccc12 [compound 018, [2-(5-Chloro-2-fluoro-phenyl)-quinolin-4-yl]-(3-nitro-pyridin-4-yl)-amine]
43 | < 500 | Fc1ccc(Cl)cc1-c1cc(Nc2ccnnc2)c2ccccc2n1 [compound 020]
44 | 1000 to 10000 | Fc1ccc(Cl)cc1-c1cc(Nc2ccnc(Cl)c2)c2ccccc2n1 [compound 021]
45 | 1000 to 10000 | Fc1ccc(Cl)cc1-c1cc(Nc2ccnc(N(c3ccnc(Cl)c3)c3cc(-c4cc(Cl)ccc4F)nc4ccccc34)c2)c2ccccc2n1 [compound 022]
46 | < 500 | Fc1ccc(Cl)cc1-c1cc(Nc2ccnc3cccnc23)c2ccccc2n1 [compound 024]
47 | < 500 | O=S1(=O)Nc2cnccc2N1c1cc(-c2cc(Cl)ccc2F)nc2ccccc12 [compound 025]
48 | 500 to 1000 | Cc1nc2cnccc2n1-c1cc(-c2cc(Cl)ccc2F)nc2ccccc12 [compound 026]
49 | < 500 | CN1CCC(C(=O)Nc2cnccc2Nc2cc(-c3cc(Cl)ccc3F)nc3ccccc23)CC1 [compound 027]
50 | > 10000 | CN1CCC(c2nc3cnccc3n2-c2cc(-c3cc(Cl)ccc3F)nc3ccccc23)CC1 [compound 028]
51 | < 500 | CN(C)C(=O)Nc1cnccc1Nc1cc(-c2cc(Cl)ccc2F)nc2ccccc12 [compound 031]
52 | > 10000 | Fc1ccc(Cl)cc1-c1cc(Nc2ccnc3[nH]ccc23)c2ccccc2n1 [compound 032]
53 | 1000 to 10000 | O=C(Nc1cnccc1Nc1cc(-c2cc(Cl)ccc2F)nc2ccccc12)C(F)(F)F [compound 033]
54 | 500 to 1000 | O=c1[nH]c2cnccc2n1-c1cc(-c2ccccc2F)nc2ccccc12 [compound 034]
55 | 1000 to 10000 | Nc1cc(N(c2cc(-c3cc(Cl)ccc3F)nc3ccccc23)c2cc(-c3cc(Cl)ccc3F)nc3ccccc23)ncn1 [compound 037]

Row | IC50 [nM] | SMILES
56 | < 500 | Nc1cc(Nc2cc(-c3cc(Cl)ccc3F)nc3ccccc23)ncn1 [compound 038]
57 | 1000 to 10000 | CS(=O)(=O)Nc1cnccc1N(c1cc(-c2cc(Cl)ccc2F)nc2ccccc12)S(C)(=O)=O [compound 040]
58 | 500 to 1000 | COc1ccc(-c2cc(Nc3ccncc3)c3ccccc3n2)cc1 [compound 042]
59 | < 500 | Fc1ccc(F)c(-c2cc(Nc3ccncc3)c3ccccc3n2)c1 [compound 043]
60 | 500 to 1000 | COc1cccc(-c2cc(Nc3ccncc3)c3ccccc3n2)c1 [compound 049]
61 | < 500 | Clc1ccccc1-c1cc(Nc2ccncc2)c2ccccc2n1 [compound 050]
62 | 1000 to 10000 | COc1ccccc1-c1cc(Nc2ccncc2)c2ccccc2n1 [compound 052]
63 | 1000 to 10000 | O=c1[nH]c2cnccc2n1-c1c(O)c(-c2cc(Cl)ccc2F)nc2ccccc12 [compound 053]
64 | 1000 to 10000 | N#Cc1cccc(-c2cc(Nc3ccncc3)c3ccccc3n2)c1 [compound 055]
65 | < 500 | Fc1ccc(C(F)(F)F)cc1-c1cc(Nc2ccncc2)c2ccccc2n1 [compound 056]
66 | < 500 | c1ccc(-c2cc(Nc3ccncc3)c3ccccc3n2)nc1 [compound 057]
67 | < 500 | Clc1cccc(-c2cc(Nc3ccncc3)c3ccccc3n2)c1 [compound 059]
68 | > 10000 | Fc1ccc(Cl)cc1-c1cc(NCc2ccncc2)c2ccccc2n1 [compound 060]
69 | > 10000 | Fc1ccc(Cl)cc1-c1cc(NCc2cccnc2)c2ccccc2n1 [compound 065]
70 | > 10000 | Cc1cncc(-c2cc(Nc3ccncc3)c3ccccc3n2)c1 [compound 066]
71 | 500 to 1000 | CN(C)CCCC(=O)Nc1cnccc1Nc1cc(-c2cc(Cl)ccc2F)nc2ccccc12 [compound 067]
72 | < 500 | Fc1ccc(Cl)cc1-c1cc(Nc2ccnc3cc(C(F)(F)F)ccc23)c2ccccc2n1 [compound 069]
73 | < 500 | c1ccc(-c2cc(Nc3ccncc3)c3ccccc3n2)cc1 [compound 073]
74 | 1000 to 10000 | CCN(CC)CCNS(=O)(=O)Nc1cnccc1Nc1cc(-c2cc(Cl)ccc2F)nc2ccccc12 [compound 076]
75 | < 500 | Fc1ccc(Cl)cc1-c1cc(-n2cnc3cnccc32)c2ccccc2n1 [compound 077]
